In the NIST ThermoML archive (doi:10.1016/j.fluid.2004.12.005):

How the values were obtained:
[1] = activity coefficient (dimensionless); of the first substance listed, at infinite dilution; xn = mol fraction of the nth substance listed; details: Liquid, Chromatography, x1 = 0
[2] = excess molar enthalpy (molar enthalpy of mixing); xn = mol fraction of the nth substance listed; details: Liquid, Flow calorimetry

CCOC(C)=O [ethyl acetate] + CCCCCCCCCCCC
[1]
Details	activity coefficient
303.16 K	3.25
313.17 K	3.05
323.2 K	2.88
333.16 K	2.71

CC(=O)OC(C)C [1-methylethyl ethanoate] + CCCCCCCCCCCC
[1]
Details	activity coefficient
303.16 K	2.82
313.17 K	2.66
323.2 K	2.52
333.16 K	2.42

CCCCCCCCCC [decane] + CCOC(C)=O
[2]
Details	excess molar enthalpy [kcal/mol]
363.15 K, 1397 kPa, x2 = 0.0952	0.112
363.15 K, 1397 kPa, x2 = 0.1817	0.198
363.15 K, 1397 kPa, x2 = 0.2607	0.261
363.15 K, 1397 kPa, x2 = 0.3332	0.304
363.15 K, 1397 kPa, x2 = 0.3998	0.333
363.15 K, 1397 kPa, x2 = 0.4614	0.349
363.15 K, 1397 kPa, x2 = 0.5183	0.356
363.15 K, 1397 kPa, x2 = 0.5712	0.355
363.15 K, 1397 kPa, x2 = 0.6205	0.347
363.15 K, 1397 kPa, x2 = 0.6665	0.335
363.15 K, 1397 kPa, x2 = 0.7095	0.316
363.15 K, 1397 kPa, x2 = 0.7499	0.292
363.15 K, 1397 kPa, x2 = 0.7878	0.266
363.15 K, 1397 kPa, x2 = 0.8234	0.236
363.15 K, 1397 kPa, x2 = 0.8571	0.202
363.15 K, 1397 kPa, x2 = 0.8888	0.167
363.15 K, 1397 kPa, x2 = 0.9189	0.129
363.15 K, 1397 kPa, x2 = 0.9473	0.0868
363.15 K, 1397 kPa, x2 = 0.9743	0.0437
413.15 K, 1342 kPa, x2 = 0.0952	0.116
413.15 K, 1342 kPa, x2 = 0.1817	0.204
413.15 K, 1342 kPa, x2 = 0.2607	0.268
413.15 K, 1342 kPa, x2 = 0.3332	0.314
413.15 K, 1342 kPa, x2 = 0.3998	0.346
413.15 K, 1342 kPa, x2 = 0.4614	0.363
413.15 K, 1342 kPa, x2 = 0.5183	0.371
413.15 K, 1342 kPa, x2 = 0.5713	0.372
413.15 K, 1342 kPa, x2 = 0.6205	0.363
413.15 K, 1342 kPa, x2 = 0.6665	0.351
413.15 K, 1342 kPa, x2 = 0.7095	0.329
413.15 K, 1342 kPa, x2 = 0.7499	0.306
413.15 K, 1342 kPa, x2 = 0.7878	0.277
413.15 K, 1342 kPa, x2 = 0.8234	0.244
413.15 K, 1342 kPa, x2 = 0.8571	0.209
413.15 K, 1342 kPa, x2 = 0.8888	0.171
413.15 K, 1342 kPa, x2 = 0.9189	0.131
413.15 K, 1342 kPa, x2 = 0.9473	0.0884
413.15 K, 1342 kPa, x2 = 0.9743	0.0466
